In patent US9527838B2, “2-pyridinecarboxamide derivatives, compositions containing such compounds, and methods of treatment” (priority 2012, dated 2016):

Target: Recombinant human liver glucokinase (Homo sapiens (Human), UniProt P35557)
Assay: Glucokinase activation assay (G6PDH-coupled, Thio-NADH absorbance at 405 nm)
Format: biochemical
Details: for EC50: 2.5 mM Glu, 30° C.
Text: The glucokinase activity can, for instance, be determined without directly measuring glucose-6-phosphate by measuring the amount of Thio-NADH generated during the production of phosphogluconolactone from glucose-6-phosphate by a reporter enzyme glucose-6-phosphate dehydrogenase.
To test the exemplified compounds, the following assay was employed. Recombinant human liver glucokinase was expressed as a FLAG fusion protein in E. coli, and purified on […] M2 AFFINITY GEL (Sigma). The assay was carried out at 30° C. in a 96-well plate. In the plate was distributed 69 μl each of assay buffer (25 mM Hepes Buffer: pH=7.2, 2 mM MgCl2, 1 mM ATP, 0.5 mM TNAD, 1 mM dithiothreitol), to which was added 1 μl of a DMSO solution of the compound or DMSO as control. Then, 20 μl of pre-ice-cooled enzyme mixture (FLAG-GK, 20 U/ml G6PDH) was distributed thereto, to which was added 10 μl of 25 mM glucose as substrate to initiate the reaction (final glucose concentration=2.5 mM). After starting the reaction, the absorbance at 405 nm was measured every 30 seconds for 10 minutes to evaluate the compound based on the initial increase for 5 minutes. FLAG-GK was added so that the increase of absorbance after 5 minutes fell between 0.05 to 0.1 in the presence of 1% DMSO.
The OD values of the respective compounds were measured in the respective concentrations, wherein the OD value of DMSO as control is regarded as 100%.

Chain of Recombinant human liver glucokinase (P35557 other isoform, or with tags, fused parts or gaps): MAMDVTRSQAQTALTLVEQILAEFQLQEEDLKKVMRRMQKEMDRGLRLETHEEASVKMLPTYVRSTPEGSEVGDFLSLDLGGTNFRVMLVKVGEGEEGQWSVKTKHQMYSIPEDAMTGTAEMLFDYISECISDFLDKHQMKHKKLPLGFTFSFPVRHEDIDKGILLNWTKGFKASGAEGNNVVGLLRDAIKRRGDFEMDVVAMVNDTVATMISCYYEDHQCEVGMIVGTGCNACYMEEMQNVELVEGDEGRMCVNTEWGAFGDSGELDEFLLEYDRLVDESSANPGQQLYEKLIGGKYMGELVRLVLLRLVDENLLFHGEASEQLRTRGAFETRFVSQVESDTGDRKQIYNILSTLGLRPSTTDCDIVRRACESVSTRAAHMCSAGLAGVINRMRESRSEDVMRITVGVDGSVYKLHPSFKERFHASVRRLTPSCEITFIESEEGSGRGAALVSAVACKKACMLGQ

CCOC(=O)CSc1cnc(NC(=O)c2nc(Sc3nncn3C)ccc2Sc2ccc(Cl)c(Cl)c2)s1 [Example 51, Ethyl ({2-[({3-[(3,4-dichlorophenyl)sulfanyl]-6-[(4-methyl-4H-1,2,4-triazol-3-yl)sulfanyl]pyridin-2-yl}carbonyl)amino]-1,3-thiazol-5-yl}sulfanyl)acetate]
Emax: 479%
EC50: 6.2 nM

Cn1cnnc1Sc1ccc(Sc2ccc(Cl)c(Cl)c2)c(C(=O)Nc2ncc(SCC(=O)O)s2)n1 [Example 52, ({2-[({3-[(3,4-Dichlorophenyl)sulfanyl]-6-[(4-methyl-4H-1,2,4-triazol-3-yl)sulfanyl]pyridin-2-yl}carbonyl)amino]-1,3-thiazol-5-yl}sulfanyl)acetic acid]
Emax: 431%
EC50: 16.6 nM

CCOC(=O)Cc1nc(NC(=O)c2nc(Sc3nncn3C)ccc2Sc2ccc(Cl)c(Cl)c2)sc1Cl [Example 53, Ethyl {5-chloro-2-[({3-[(3,4-dichlorophenyl)sulfanyl]-6-[(4-methyl-4H-1,2,4-triazol-3-yl)sulfanyl]pyridin-2-yl}carbonyl)amino]-1,3-thiazol-4-yl}acetate]
Emax: 426%
EC50: 7.6 nM

Cn1cnnc1Sc1ccc(Sc2ccc(Cl)c(Cl)c2)c(C(=O)Nc2nc(CC(=O)O)c(Cl)s2)n1 [Example 54, {5-Chloro-2-[({3-[(3,4-dichlorophenyl)sulfanyl]-6-[(4-methyl-4H-1,2,4-triazol-3-yl)sulfanyl]pyridin-2-yl}carbonyl)amino]-1,3-thiazol-4-yl}acetic acid]
Emax: 523%
EC50: 23.3 nM
